The structures appear in SMILES notation. Several values for one entry are separate records, joined by “and”; a condition that tells them apart may be missing. Equal values may be shown once.

The values below come from US20240390356A1, “HALOPERIDOL FOR USE IN THE TREATMENT OF SPINAL MUSCULAR ATROPHY” (UNIVERSITAT DE VALÈNCIA, priority 2021, published 2024).

Data set [1] deals with myoblasts derived from SMA type II patients (KM1150SMAII7PV). Nature of the data set: Fusion index of immortalized myoblasts derived from SMA type II patients. As to conditions: 72 h, healthy myoblasts about 68%, patient myoblasts 50%. The class given is cell-based, human.
Experimental: Fusion index of immortalized myoblasts derived from patients with SMA type II. […] Healthy (control; abbreviated as CON) and solvent-treated 25 SMA myoblasts (0.5% DMSO) were used to establish a difference in the differentiation process. Risdiplam at 1 μM was used as a positive control. Nuclei were labeled with 4′,6-diamidino-2-phenylindole (DAPI) and myoblasts were detected using an anti-Desmin antibody. Multinuclear myotubes are marked with white arrows. The fusion index of DMSO-treated healthy and SMA differentiated myoblasts, and compound-treated SMA myoblasts, was calculated. Data were collected after analysis of at least 100 cells and statistics were calculated using Student's t-test (*p<0.05, **p<0.01, ***p<0.001).
For myoblast immunostaining, 40,000 cells were seeded in a 24-well plate (previously covered with collagen) with 400 μl of KMEM medium and incubated overnight. The following day the medium was changed for the DMEM Glutamax 4.5 g (Gibco) differentiation medium supplemented with 2% horse serum (Sigma); penicillin (100 U/ml) and streptomycin (100 mg/ml) [1% P/S; Gibco], gentamicin (50 μg/ml; Sigma) and insulin (10 μg/ml; Sigma). […] The cells were incubated for 72 h with the compounds and fixed in 4% paraformaldehyde for 10 minutes. All cell cultures were incubated at 37° C. with 5% CO2.
Nuclei were stained with DAPI. […]
For data set [2], the system named is co-culture of SMA type I motoneurons and SMA type I myoblasts. Nature of the data set: Motoneurons and myoblasts co-culture (MN survival, myotube area). It is filed as cell-based, human. The note with it: treatment every 3 days for 7 days, versus non-treated controls.
Text: SMA type I (SMA) or healthy motoneurons (MN) derived from induced pluripotent stem cells were co-cultured with SMA type I or healthy myoblasts differentiated into myotubes. […] (B) Analysis of SMA myotubes area compared to the same controls as above. […] Myotubes were marked using MF20 marker (dark green), MNs were marked with ISL1 (red), acetylcholine receptors were marked with AChR (light green) and cell nuclei were stained with Hoechst (blue).
Primary cells were isolated from skeletal muscle as described previously (Chaouch et al. 2009). These cells were expanded and differentiated as previously described. Briefly, primary and immortalized myoblasts were expanded in a mix of 199 medium/Dulbecco modified Eagles minimal essential medium (1:4 ratio) supplemented with 20% fetal bovine serum (FBS), 25 μg/mL fetuin, 0.5 ng/ml basic fibroblast growth factor, 5 ng/ml epidermal growth factor, 5 μg/mL insulin. Cells were then cultivated in a growth medium consisting of DMEM-F12 glutamax (Life Technologies) supplemented with 20% FBS (Sigma-Aldrich) and 0.1% penicillin/steptomycin (Life Technologies). Myogenic differentiation was induced by switching growth medium to DMEM supplemented with 2% horse serum (Life Technologies).
For co-culture, spinal MNs must be differentiated from hiPSC as described previously, but the embryoid bodies are dissociated at day 14 of differentiation and frozen. […]
In data set [3] the test system is delta 7 SMA mice. Nature of the data set: NMJ innervation of quadriceps muscles in delta 7 SMA mice. It is filed as in vivo. As to conditions: mean ± SEM, sham 33.75±1.31%.
Data set [4] deals with SMN2 FL transcript. The data set is described as follows: qPCR quantification of SMN2 full length (FL) transcript in SMA fibroblasts. The note with it: for SMN2 FL isoform levels: 48 hours, GM03813 fibroblasts, normalized to GAPDH, each of 3 samples. More on the design: key to SMN2 FL isoform levels: relative expression (2^-ΔΔCt), normalized to reference gene. It is filed as cell-based, human. How it is done: (§1) Fibroblasts derived from SMA patients (GM03813; Coriell Cell Repositories) were grown at 37° C. in cell culture bottles with Dulbecco's Modified Eagle Medium (DMEM; Gibco) and […] glucose. The medium was supplemented with penicillin (100 U/ml) and streptomycin ([…]) [1% P/S; Gibco] and 10% inactivated fetal bovine serum (FBS; Gibco).
(§2) For RNA extraction 400,000 GM03813 fibroblasts were seeded in 60 mm culture dishes in 4 ml of supplemented DMEM medium. The following day the medium was changed, and the candidate compound was added at its maximum non-toxic concentration. The cells were incubated for 48 hours and then washed with 1× PBS and collected in sterile 1.5 ml tubes. The same was done for the evaluation of the effect of haloperidol on the level of SMN protein (example 2) with the difference that 1,000,000 fibroblasts were used in a 100 mm cell culture plate and that the cells were collected after […] with a RIPA protein extraction buffer supplemented with a protease inhibitor cocktail (cOmplete; Roche).
(§3) Extraction of RNA from cells was carried out with ReliaPrep™ RNA Cell Miniprep System (Promega), following the manufacturer's instructions. […] RNA concentration and salt contamination were measured with the NanoDrop spectrophotometer (ThermoFisher). The samples were stored at −80° C. […] of total RNA was retrotranscribed using SuperScript III retrotranscriptase (Invitrogen) following the manufacturer's instructions. Genomic DNA contamination was monitored in the RNA samples without the addition of retrotranscriptase.
(§4) For the quantification of the SMN2 full length (FL) and SMN2 without exon 7 (Δ7) transcripts, qPCR Probe Mix (Solis Biodyne) was used. The reaction was carried out in a multiplex manner, in which the signal from the SMN2 and GAPDH probe was read in a single reaction. 10 ng of cDNA was used as a standard and the concentration of both probes was 250 nM.
(§5) Primer sets for detection of SMN2 FL or Δ7 isoforms were used at a final concentration of 500 nM while the concentration of the primer set used for GAPDH was 150 nM. All reactions were carried out using a Step-One Real-Time PCR thermocycler (Applied Biosystems). In all cases, the experiment included 3 biological samples and three technical replicates for each sample. Expression levels were normalized to the reference gene using a 2-^ΔΔCt method. Primers were obtained from Naryshkin, N. A. et al. Science (2014) 345, 688-693.
(§6) The selected SMA fibroblast line has 3 copies of the SMN2 gene and homozygous deletion of Ex7-Ex8 in SMN1 and therefore only SMN2 gene transcripts were measured. The conditions for cell cultures and extraction protocols are described in Example 1.
On the technique in general: In qPCR the cycle at which signal appears reflects the starting amount.

In data set [5] the test system is SMA motoneurons derived from hiPSCs. The data set is described as follows: Survival rate of hiPSC-derived SMA motoneurons (ISL1-positive cells). It is filed as cell-based, human. As to conditions: 10 days of treatment.
Experimental: (B) SMA MNs survival rate analysis after 10 days of treatment at a range of concentrations. […] Kenpaullone (Ken) at 10 μM was used as as positive control in those experiments.
For spinal motor neurons (MNs) differentiation from hiPSCs, we used a previously reported protocol [Maury et al., 2015]. HiPSC were incubated in suspension in a neural induction medium containing DMEM/F12 and Neurobasal medium supplemented with B27 (Life Technologies), N2 Supplement (Life Technologies), Pen-Strep 0.1%, β-Mercaptoethanol (β-ME) 0.1% (Life Technologies), Ascorbic Acid (0.5 μM, Sigma-Aldrich), Chir99021 (3 μM, Stemgent), SB431542 (20 μM, Tocris), LDN 193189 (0.2 μM, Stemgent) and Y-27632 (10 μM, Stemcell) at a density of 0.2×10^6 cells/ml in T25 flask or 0.25×10^6 cells/ml in spinner flask. After 2 days, caudalization of the neural progenitors was obtained by addition of retinoic acid (RA 0.1 μM) and smoothened agonist (SAG, 0.5 μM). After 1 week in suspension, brain-derived neurotrophic factor (BDNF, 10 ng/ml), glial-derived neurotrophic factor (GDNF, 10 ng/ml), and N-[N-(3,5-Difluorophenacetyl)-L-alanyl]-S-phenylglycine t-butyl ester (DAPT, 10 nM) were added in the medium without SB431542 and LDN193189. Between day 10 and 14, MN progenitors are converted into MNs. […]
The survival of MNs was determined by quantifying the number of ISL1-positive cells in each condition.
The test system of data set [6] is SMA Δ7 mice. The data set is described as follows: Body weight and behavioral motor tests in SMA Δ7 mice. The class given is in vivo. How it is done: FIG. 4. Effect of Haloperidol treatment on weight and motor performances of SMN Δ7 mice. […] VHL (vehicle, 0.9% saline solution with 2% DMSO) n=8, HALO (haloperidol) n=5. Results are expressed as mean±SEM (two-way ANOVA, * p≤0.05; ** p≤0.01; *** p≤0.001; **** p≤0.0001).
(§7) The efficacy of Haloperidol was then tested (University of Turin, Boido et al.) in SMA Δ7 mice (purchased from Jackson Laboratory, Maine, USA; stock number 005025). This triple mutant mouse harbors two transgenic alleles and a single targeted mutant. The Tg(SMN2*delta7)4299Ahmb allele consists of a SMN cDNA lacking exon 7 whereas the Tg(SMN2)89Ahmb allele consists of the entire human SMN2 gene. […] At birth, triple mutants are noticeably smaller than normal littermates; by day 5, signs of muscle weakness appear and become progressively more pronounced over the following week as the mice display an abnormal gait, shakiness in the hind limbs and a tendency to fall over. Mean survival is approximately 13 days.
(§8) Treated SMA mice subcutaneously received 0.5 mg/Kg Haloperidol, dissolved in 2% DMSO in saline solution (HALO group), whereas control mice received an equal amount of saline solution with 2% DMSO (VHL group). Haloperidol or saline solution were daily administered, from P2 (postnatal day 2) to P12 (day of sacrifice).
During the whole period, the animals underwent a number of behavioral motor tests: tail suspension test, righting reflex, hindlimb suspension test, negative geotaxis (El-Khodor et al. 2008, Boido et al. 2018). Mice were evaluated daily starting from P2 for body weight and behavioral performances: • Tail suspension test (self-clasping): pups were suspended by the tail for 15 s, and their hind-limb posture was scored in a scale from 4 (normal) to 0 (clasping); • Righting reflex: pups were placed on their backs on a flat surface; their success or failure to reposition themselves dorsal side up was assessed over a 30 s period; • Negative geotaxis test: starting from P4, pups we placed on an inclined grid with the mouse head facing down (cut off: max 60 s).

In data set [7] the test system is SMN2 Δ7 transcript. The data set is described as follows: qPCR quantification of SMN2 without exon 7 (Δ7) transcript in SMA fibroblasts. On the set-up: key: relative expression (2^-ΔΔCt), normalized to reference gene. It is filed as cell-based, human. As to conditions: 48 hours, GM03813 fibroblasts, normalized to GAPDH, each of 3 samples. How it is done: as §1, §2, §3, §4, §5, §6

The subject of data set [8] is SMN. The data set is described as follows: SMN expression by Western Blot in tissues of SMA Δ7 mice at P12. It is filed as in vivo. As to conditions: P12, 0.5 mg/Kg s.c. daily. The protocol:
FIG. 5. Analysis of SMN expression by Western Blot.
as §7, §8
At P12, Halo and VHL animals were sacrificed, and fresh spinal cords and some skeletal muscles (diaphragm, quadriceps, and gastrocnemius) were rapidly dissected. We then verified the effect of Haloperidol on SMN expression on these samples. Tissues were homogenized on ice using a pestle homogenizer in radioimmunoprecipitation assay buffer (RIPA lysis buffer) (Merck Life Sciences) supplemented with 1 mM PMSF, 1 mM DTT, 2 mM sodium orthovanadate (ThermoFisher Scientific) and 1× cOmplete™ Protease Inhibitor Cocktail (Merck Life Sciences). Sample homogenates were incubated on ice for 20 min before being centrifuged for the insoluble material separation at 14,000×g for 20 min at 4° C. Total protein concentration was assayed on supernatants using Bradford reagent (Bio-Rad). Protein denaturation was performed with NuPAGER LDS Sample Buffer supplemented with NuPAGE® Sample Reducing Agent (ThermoFisher Scientific), by heating at 95° C. for 5 min. SDS-PAGE and transfer were performed on 4-20% Mini-PROTEAN® TGX™ Precast Protein Gels and Trans-Blot® Turbo™ mini nitrocellulose membranes using a Trans-Blot® Turbo™ transfer System (Bio-Rad), respectively. Nonspecific binding sites were blocked using 5% nonfat dried milk in PBS-0.2% Tween-20 (Merck Life Sciences) (PBS-T) for 1 h at RT under shaking. […] Immunolabeling was detected with Clarity™ Western ECL Blotting Substrates (Bio-Rad) using the ChemiDoc™ imaging system (Bio-Rad). Densitometric quantitation of bands was performed with Fiji (Image J, NIH).
(In general: In western blotting, separated proteins are transferred to a membrane and probed.)

For data set [9], the system named is SMN protein. The data set is described as follows: SMN protein levels by Western blotting in fibroblasts derived from SMA type II patients. The class given is cell-based, human. The note with it: 72 h, compared to 0.5% DMSO, single samples. The protocol: as §1, §2
Fibroblasts derived from SMA type Il patients were incubated with haloperidol at three concentrations for 72 h. 10 μg of protein extracted from cells treated with haloperidol were separated by electrophoresis with acrylamide/bis-acrylamide gels SDS-PAGE with the Mini-protean Electrophoresis System (Bio-Rad). After electrophoresis was carried out, the proteins were transferred to a nitrocellulose membrane (GE Healthcare) using a semi-dry electro-transfer system (Bio-Rad) for one hour with a constant voltage of 15 V. The membranes were incubated with a blocking solution (5% skim milk in PBST, 1× PBS, 0.1% Tween 20) for at least 1 h at room temperature. […]
Chemiluminescence was detected using SuperSignal West Pico Sensitivity Substrate (Pierce) and acquired with ImageQuant LAS 4000 (GE Healthcare). […] Statistical significance was calculated using the Student's t-test (* p<0.05, ** p<0.01, *** p<0.001).

For data set [10], the system named is delta 7 SMA mice. Nature of the data set: Muscular fiber morphology of quadriceps in delta 7 SMA mice. It is filed as in vivo. The note with it: P12, 10 days at 0.5 mg/kg, versus sham. How it is done: FIG. 9. The effect of haloperidol on muscular fiber morphology in the skeletal muscles of delta 7 mice. Comparison of quadriceps fiber morphology between sham (0.9% saline solution with 2% DMSO) and haloperidol-treated delta 7 SMA mice at P12. The measurements of the muscle fiber area (A), perimeter (B), and maximum and minimum Feret's diameter of muscle fibers (C). At least 100 fibers were analyzed from each animal; the results are shown as the averages obtained from the individual animals.
We first performed morphological analyses of the H/E-stained quadriceps muscles from mice at postnatal day 12 (P12) after 10 days of treatment with haloperidol at 0.5 mg/kg and compared it to mice treated with sham. Specifically, for the morphological analysis of quadriceps skeletal muscle sections were stained with H/E, as previously described (Valsecchi et al. (2015); Rindt et al. (2015)). To morphologically evaluate mean fiber area, perimeter, minimum and maximum Feret's diameter, more than 100 fibers for each animal were drawn with Neurolucida software (MicroBrightField Inc.) and a computer-assisted microscope (Nikon Eclipse E600 microscope). Data were obtained by the associated data analysis software NeuroExplorer (MicroBrightField): we then averaged the means obtained from single animals. Images of skeletal muscles fibers were acquired with Zeiss Axioscan Z.1 digital slide scanner microscope (Carl Zeiss AG).

The mark [11] stands for this setting: 0.5 mg/Kg subcutaneously daily P2 to P12, versus VHL.

As to `Cc1cn2nc(-c3cc(=O)n4cc(N5CCNC6(CC6)C5)ccc4n3)cc(C)c2n1` [risdiplam], the fusion index in [1] (1 μM (positive control)) amounted to 66.7%.
For `O=C(CCCN1CCC(O)(c2ccc(Cl)cc2)CC1)c1ccc(F)cc1` [haloperidol], the “area of myotubes in co-culture” value in data set [2] is “increases the area of myotubes”. Moreover, the “survival rate of SMA MNs in co-culture” value in data set [2] is given as “increases the survival rate of SMA MNs”. For the same molecule, the denervated endplates in [3] is recorded as 9.50±1.50%. The “SMN2 FL isoform levels” value was 1.10 and 1.03 and 1.06 in data set [4] (10 μM); 1.15 and 1.37 and 1.07 in data set [4] (25 μM); 1.32 and 1.47 and 1.51 in data set [4] (37.5 μM); 2.54 and 2.11 and 2.33 in data set [4] (50 μM). In addition, in [4] (at the highest concentration), the “amount of FL SMN2 transcript” value is on record as “doubled”. In addition, in data set [5] (0.32 μM), the “SMA motoneurons survival rate” value is “almost completely rescue”. Further, the “SMA motoneurons survival rate compared with positive control” value in data set [5] (versus kenpaullone at 10 μM) is listed as “more efficient than the positive control kenpaullone”. The body weight result in data set [6] (setting [11]) is given as “significant weight increase”. Moreover, in [6] (setting [11]), the negative geotaxis test result is “improved motor performances”. In addition, in data set [6] (setting [11]), the righting reflex test result was “improved motor performances”. For the same molecule, the tail suspension test result in [6] (setting [11]) is recorded as “improved motor performances”. Moreover, the “side effects (behavioral changes or sedation phenotypes)” value in data set [6] (murine SMA model, haloperidol administration) is listed as “not associated with any conspicuously deleterious or undesirable side effects”. In addition, the “SMN2 Δ7 isoform levels” value was 0.90 and 0.89 in data set [7] (10 μM); 1.00 and 1.06 and 1.04 in data set [7] (25 μM); 0.96 and 1.01 and 1.03 in data set [7] (37.5 μM); 1.89 and 1.23 in data set [7] (50 μM). The “SMN expression increase compared to VHL” value in [8] (diaphragm) stood at 23%; in data set [8] (gastrocnemius) it was 102%; in data set [8] (quadriceps), 123%; in data set [8] (spinal cord) it was 58%. In addition, the SMN protein levels was 1.132 and 1.751 and 1.745 in data set [9] (25 μM); 2.265 and 2.211 and 2.469 in [9] (37.5 μM); 2.413 and 2.453 and 2.614 in [9] (50 μM). Also, the fusion index in [1] (2.5 μM) is on record as 66.7%. In data set [10], the “increase in Max Feret's diameter” value was “+40%”. For the same molecule, in data set [10], the “increase in fiber area” value is reported as “+104%”. Moreover, the “increase in fiber perimeter” value in [10] was “+43%”. Also, the “increase in min Feret's diameter” value in data set [10] is reported as “+49%”.
